Entries after “also recorded” stand apart in the source; their conditions may differ. Read-outs that look alike come from different tables or passages of the source.
What was measured:
[1] = biological target: Neuraminidase from Clostridium perfringens (C. welchii) (EC 3.2.1.18); format: biochemical; settings: for IC50: pH 5.0, 37 °C, read-out: IC50, bacterial neuraminidase
[2] = test system: Neuraminidase from Clostridium perfringens (bacterial neuraminidase); format: binding
[3] = biological target: Neuraminidase from Clostridium perfringens (bacterial neuraminidase); format: biochemical; settings: for Ki: read-out: Ki (inhibition constant); for Kik/Kiv: Yang's method
[4] = concentration that caused 50% enzyme activity loss, three repeats
[5] = Lineweaver–Burk and Dixon plots

Compound | IC50 [1, 4] | KA (binding constant) ([2]; fluorescence quenching, pH 5.0) | Ki ([3]; Dixon plots) | Kinetic Mode [3, 5] | KSV (Stern–Volmer constant) ([2]; fluorescence quenching, pH 5.0) | other results
O=c1cc(-c2ccc(O)cc2)oc2cc(O)cc(O)c12 [Apigenin, apigenin, reference compound] | 108 ± 1.8 µM | 514200 L/mol | – | – | – | –
CC(C)=CCc1cc(-c2cc(=O)c3c(O)cc(O)c(CC=C(C)C)c3o2)cc(O)c1O [Compound 1, epimedokoreanin B] | 0.17 ± 0.02 µM | 966600 L/mol | 0.15 µM | Noncompetitive | 411040 L/mol | times more effective than luteolin (mother skeleton) ([1]; ratio of IC50 values): 500 times; Kinetic Mode ([3]; Lineweaver–Burk and Dixon plots, listed as compound 1): noncompetitive inhibition; also recorded: noncompetitive behavior; Kik/Kiv ([3]; [I] 0.12 µM): 16.0415; Kik/Kiv ([3]; [I] 0.24 µM): 6.6846; Kik/Kiv ([3]; [I] 0.48 µM): 7.7610; reversibility of inhibition ([3]; initial velocity versus enzyme concentration plots): reversible inhibitor
CC(C)=CCc1c(O)cc(O)c2c1OC(c1ccc(O)cc1)C(O)C2=O (stereo not shown) [Compound 2, 8-(γ,γ-dimethylallyl)-5,7,4′-trihydroxydihydroflavonol] | 0.68 ± 0.03 µM | 792300 L/mol | 0.73 µM | Noncompetitive | 236360 L/mol | times more potent in comparison with dihydrokaempferol ([1]; ratio of IC50 values): 700 times
CC(C)=CCc1cc(-c2cc(=O)c3c(O)cc(O)c(CC=C(C)C)c3o2)ccc1O [Compound 3, 5,7,4′-trihydroxy-8,3′-diprenyl flavone] | 12.6 ± 0.2 µM | 760400 L/mol | 12.2 µM | Noncompetitive | 134420 L/mol | –
COc1ccc(-c2oc3c(CC=C(C)C)c(O[C@@H]4O[C@H](CO)[C@@H](O)[C@H](O)[C@H]4O)cc(O)c3c(=O)c2O[C@@H]2O[C@@H](C)[C@H](O)[C@@H](O)[C@H]2O)cc1 [Compound 5, icariin] | 57.8 ± 1.1 µM | 584400 L/mol | 36.8 µM | mixed type inhibitor; also recorded: mixed-type behavior; also recorded: Mixed type I | 60400 L/mol | Kik/Kiv ([3]; [I] 35.0 µM): 3.6688; Kik/Kiv ([3]; [I] 70.0 µM): 2.3384; Kik/Kiv ([3]; [I] 140.0 µM): 2.0207
COc1ccc(-c2oc3c(CC=C(C)C)c(O)cc(O)c3c(=O)c2O[C@@H]2O[C@@H](C)[C@H](O)[C@@H](O)[C@H]2O[C@@H]2OC[C@@H](O)[C@H](O)[C@H]2O)cc1 [Compound 6, sagittatoside B] | 106 ± 3.2 µM | 505700 L/mol | 103 µM | Noncompetitive | 56080 L/mol | –
COc1ccc(-c2oc3c(c(O)cc4oc(C(C)(C)OC)cc43)c(=O)c2OC2OC(C)C(O)C(O)C2O)cc1 [Compound 7, 5-hydroxy-2-(4-methoxyphenyl)-8-(2-methoxypropan-2-yl)-3-(((2S,3R,4R,5R,6S)-3,4,5-trihydroxy-6-methyltetra-hydro-2H-pyran-2-yl)oxy)-4H-furo[2-3-h]chromen-4-one] | 2.9 ± 0.7 µM | 785100 L/mol | 2.73 µM | Noncompetitive | 216560 L/mol | times more effective compared with compound 8 ([1]; methoxy group (7) versus hydroxyl group (8)): 5 times
COc1ccc(-c2oc3c(c(O)cc4oc(C(C)(C)O)cc43)c(=O)c2O[C@@H]2O[C@@H](C)[C@H](O)[C@@H](O)[C@H]2O)cc1 [Compound 8, 5-hydroxy-8-(2-hydroxypropan-2-yl)-2-(4-methoxyphenyl)-3-(((2S,3R,4R,5R,6S)-3,4,5-trihydroxy-6-methyl-tetrahydro-2H-pyran-2-yl)oxy)-4H-furo[2,3-h]chromen-4-one] | 16.7 ± 0.9 µM | 741600 L/mol | 16.4 µM | Noncompetitive | 111200 L/mol | –
O=C1c2c(O)cc(O)cc2O[C@H](c2ccc(O)cc2)[C@H]1O [Dihydrokaempferol, dihydrokaempferol, reference compound] | 500.4 ± 3.8 µM | 299800 L/mol | – | – | 24790 L/mol | fluorescence quenching (FQ) effect [2]: insignificant
O=c1cc(-c2ccc(O)c(O)c2)oc2cc(O)cc(O)c12 [Luteolin, luteolin, reference compound] | 85.6 ± 2.1 µM | 557800 L/mol | – | – | 56140 L/mol | –
O=c1c(O)c(-c2ccc(O)c(O)c2)oc2cc(O)cc(O)c12 [Quercetin, reference compound] | 20.2 ± 0.8 µM | – | – | – | – | –
icariside II [Compound 4] | – | – | – | – | – | IC50 [1]: 20 ± 0.5 µM; Kinetic Mode [3]: Noncompetitive (21.1 ± 0.8); Ki [3]: 21.1 µM; KA (binding constant) ([2]; pH 5): 733500 L/mol; KSV (Stern–Volmer constant) ([2]; pH 5): 95690 L/mol

— article PMC6359343 (Molecules, 2019)
